Results taken from patent US5618560A, “Controlled release erodible composition” (BM Research A/S, priority 1988, dated 1997).

Assay: clinical
Design: species or system patients (human)
Conditions: human, in vivo, iv, 5 mg/kg, Serum half-life
Experimental: The in vivo release of theophylline from this composition was tested in six patients, 3 males and 3 females, aged 18-42 years (mean age 30 years), weighing from 63 to 85 kg (mean weight 66 kg), all of whom were diagnosed as having bronchial asthma.
The first dose was given to the patients before breakfast (i.e. in the fasting state) as two units of the composition (340 mg theophylline) together with 100 ml of liquid. […] Following the oral dose, venous blood samples were drawn at 0, 1, 2, 3, 4, 6, 8, 10, 12, 14, 16 and 24 hours. Serum samples were drawn at 0, 15 min., 30 min., 60 min., 90 min., and 2, 3, 5, 7, 9 and 11 hours after the i.v. dose. The serum portion of the blood specimen was immediately frozen at -20° C. and kept frozen until analyzed 2 weeks later. The amount of theophylline in the serum was assayed by HPLC with an accuracy of ±5%.

Cn1c(=O)c2[nH]cnc2n(C)c1=O [theophylline]
half-life: 6 h
